Measured values from US4999424A, “GAR transformylase inhibitor” (The Pennsylvania State University, priority 1988, dated 1991).

Experiments:
GAR TFase (avian) = GAR TFase (avian) (Gallus gallus, UniProt P21872); experiment: Avian GAR TFase inhibition; format: biochemical; conditions: for Mode of inhibition: avian GAR TFase
Protocol: (§1) All assays were carried out by following the increase of 5,8-dideazafolate absorbence at 295 nm in buffered medium at 26° C. To initiate the reaction, enzyme (1 nM final concentration) was added to a mixture of saturating substrates and variable amounts of inhibitor. A characteristic family of curves was obtained, showing slow, tight-binding inhibition. See, Morrison, Trends Biochem. Sc., 7, 102 (1982) and Morrison, et al., Adv. Enzymology, Relat. Areas Mol. Biol., 57, 201-301 (1987).
(§2) The specificity of beta-TGDDF for GAR TFase from species other than E. coli was assayed in a general manner by measuring the activity of GAR TFase at a concentration of 1 nM from avian, HeLa, and L121? sources in the presence of 20 nM beta-TGDDF.
(§3) Table II illustrates the specificity of beta-TGDDF for GAR TFase in comparison with other reduced-folate utilizing enzymes. This test, was conducted using the same [I]/[E]ratios as stated previously.

GAR TFase (HeLa O) = molecular target: T1, GAR TFase (HeLa O) (Homo sapiens, UniProt P22102); experiment: HeLa O GAR TFase inhibition; format: biochemical; conditions: for Mode of inhibition: HeLa O GAR TFase
T1 construct: GAR TFase activity is the C-terminal domain of trifunctional GART
T1 sequence (P22102 2-1010): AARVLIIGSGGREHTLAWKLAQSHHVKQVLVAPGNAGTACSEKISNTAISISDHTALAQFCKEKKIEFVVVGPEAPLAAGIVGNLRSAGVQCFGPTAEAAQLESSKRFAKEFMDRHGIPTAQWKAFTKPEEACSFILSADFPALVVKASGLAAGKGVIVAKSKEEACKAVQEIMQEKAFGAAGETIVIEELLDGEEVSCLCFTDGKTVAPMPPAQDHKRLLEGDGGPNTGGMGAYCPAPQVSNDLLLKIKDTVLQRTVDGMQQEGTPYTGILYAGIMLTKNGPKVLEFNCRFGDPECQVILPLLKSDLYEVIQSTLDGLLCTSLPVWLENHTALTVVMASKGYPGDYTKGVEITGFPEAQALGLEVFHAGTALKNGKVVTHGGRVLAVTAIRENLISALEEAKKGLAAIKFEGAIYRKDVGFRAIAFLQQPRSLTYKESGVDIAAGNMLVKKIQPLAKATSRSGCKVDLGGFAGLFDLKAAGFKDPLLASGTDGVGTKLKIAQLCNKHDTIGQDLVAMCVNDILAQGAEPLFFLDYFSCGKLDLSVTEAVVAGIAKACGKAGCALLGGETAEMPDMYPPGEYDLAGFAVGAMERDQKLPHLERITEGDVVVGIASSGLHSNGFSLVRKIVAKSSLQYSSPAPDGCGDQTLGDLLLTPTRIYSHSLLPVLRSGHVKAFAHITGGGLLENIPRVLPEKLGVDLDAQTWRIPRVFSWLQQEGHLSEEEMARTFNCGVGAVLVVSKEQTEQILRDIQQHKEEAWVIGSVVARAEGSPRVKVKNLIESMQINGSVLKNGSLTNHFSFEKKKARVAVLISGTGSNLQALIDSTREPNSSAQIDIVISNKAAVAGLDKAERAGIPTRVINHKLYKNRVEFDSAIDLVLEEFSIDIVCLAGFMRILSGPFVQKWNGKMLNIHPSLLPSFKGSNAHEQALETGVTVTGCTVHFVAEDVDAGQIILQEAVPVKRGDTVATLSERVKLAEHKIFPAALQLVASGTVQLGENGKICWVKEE
Protocol: as §1, §2, §3
E. coli GAR TFase was prepared and purified as described below. L1210 and HeLa GAR TFase were purified according to published procedures. AICAR TFase was prepared according to published procedures.

E. coli GAR TFase [1] = molecular target: T2, E. coli GAR TFase (Escherichia coli, UniProt P08179); experiment: Fluorescence titration, dissociation constant for E. coli GAR TFase; format: binding; conditions: average from three wavelengths (396, 400, 405 nm); standard error about 50 pM; 11 nM inhibitor, excitation 275 nm; read-out: thermodynamic dissociation constant, KD
T2 construct: made in house; host or cells: E. coli TX393 with multicopy plasmid pJS85, or E. coli TX635 with lambda pL plasmid pJS119 or pJS167
T2 sequence (P08179 1-212): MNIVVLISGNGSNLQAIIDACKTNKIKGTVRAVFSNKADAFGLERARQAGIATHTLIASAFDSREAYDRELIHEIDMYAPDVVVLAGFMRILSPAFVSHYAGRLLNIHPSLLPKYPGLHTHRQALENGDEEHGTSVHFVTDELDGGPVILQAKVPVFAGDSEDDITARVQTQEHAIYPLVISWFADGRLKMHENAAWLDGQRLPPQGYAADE
Protocol: The thermodynamic dissociation constant, KD, for the E.β-TGDDF complex was measured by following the enhancement of the inhibitor's 395 nm fluorescence (excitation at 275 nm) upon binding to GAR TFase. A concentrated E. coli GAR TFase solution was added to an 11 nM solution of purified β-TGDDF; for each addition, the fluorescence at three different wavelengths (396, 400, and 405 nm) was measured. Fluorescence titration data was analyzed by the method of Taira and Benkovic, J. Med. Chem., 31, 129-137 (1988).
(§4) In analyzing the biological activity of the compounds of the present invention, GAR TFase from E. coli was used. This enzyme behaves like the mammalian and avian enzyme with respect to substrate specificity, yet is a simple and effective system having only one biological activity. That is, unlike the avian trifunctional GAR TFase, the E. coli species has a sole function. This follows from the genetic evidence of Smith and Daum, J. Biol. Chem., 262, 10565-10569 (1987) as w®11 as the work of Schrimsher et al., Biochemistry, 25, 4366-4371 (1986) who have shown that […] from E. coli is a monofunctional protein, whereas, in chicken it belongs to a trifunctional protein containing, the activates: GAR SYNthase, GAR TFase, and AIR SYNthase.
The E. coli GAR TFase binding constants for the compounds of the present invention and other folate analogs are shown in Table I below: […]

E. coli GAR TFase [2] = molecular target: T2, E. coli GAR TFase; experiment: E. coli GAR TFase inhibition/activity assay (5,8-dideazafolate absorbance at 295 nm); format: biochemical; conditions: E. coli GAR TFase, 26° C, 1 nM enzyme, saturating substrates
Protocol: as §1, §4
The E. coli GAR TFase binding constants for the compounds of the present invention and other folate analogs are shown in Table I below:
as §3

GAR TFase (avian), sequence (P21872 whole entry): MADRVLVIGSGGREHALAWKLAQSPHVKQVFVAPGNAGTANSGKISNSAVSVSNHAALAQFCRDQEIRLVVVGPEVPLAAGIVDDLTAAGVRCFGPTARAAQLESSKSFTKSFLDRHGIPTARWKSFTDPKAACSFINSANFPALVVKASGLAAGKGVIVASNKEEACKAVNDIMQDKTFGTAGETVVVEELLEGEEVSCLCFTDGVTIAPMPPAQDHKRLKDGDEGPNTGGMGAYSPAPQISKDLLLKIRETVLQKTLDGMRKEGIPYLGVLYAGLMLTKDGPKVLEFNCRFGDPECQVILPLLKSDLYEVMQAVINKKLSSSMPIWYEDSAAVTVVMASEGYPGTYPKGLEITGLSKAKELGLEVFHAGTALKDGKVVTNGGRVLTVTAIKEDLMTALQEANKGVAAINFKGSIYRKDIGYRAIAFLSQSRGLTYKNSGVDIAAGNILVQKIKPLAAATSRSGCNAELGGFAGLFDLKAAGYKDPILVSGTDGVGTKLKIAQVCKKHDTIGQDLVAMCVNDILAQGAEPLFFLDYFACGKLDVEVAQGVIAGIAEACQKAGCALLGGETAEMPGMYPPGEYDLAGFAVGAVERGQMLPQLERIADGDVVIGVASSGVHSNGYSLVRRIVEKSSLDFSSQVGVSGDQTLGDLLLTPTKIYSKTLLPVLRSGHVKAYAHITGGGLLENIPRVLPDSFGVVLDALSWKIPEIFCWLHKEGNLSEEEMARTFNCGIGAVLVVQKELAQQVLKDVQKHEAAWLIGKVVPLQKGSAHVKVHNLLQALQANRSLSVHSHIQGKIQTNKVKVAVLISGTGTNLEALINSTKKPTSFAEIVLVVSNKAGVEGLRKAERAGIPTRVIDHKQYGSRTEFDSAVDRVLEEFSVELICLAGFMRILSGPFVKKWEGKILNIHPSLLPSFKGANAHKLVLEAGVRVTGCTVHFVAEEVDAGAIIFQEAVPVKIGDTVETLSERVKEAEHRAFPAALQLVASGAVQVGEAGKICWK

Nc1nc2ccc(CN(C(=O)CSCC(=O)N[C@@H]3O[C@H](COP(=O)(O)O)[C@@H](O)[C@H]3O)c3ccc(C(=O)N[C@@H](CCC(=O)O)C(=O)O)cc3)cc2c(=O)[nH]1 [beta-TGDDF, N^10-[5'-phosphoribosyl-1'-β-amino-carbonylmethyl-1-thioacetyl]-5,8-dideazafolate]
Extent of inhibition (GAR TFase (avian); 20 nM beta-TGDDF, 1 nM enzyme): inhibited by roughly the same magnitude
Mode of inhibition (GAR TFase (avian)): inhibition of a slow, tight binding nature
Mode of inhibition (GAR TFase (avian); listed as Beta-TGDDF): slow, tight-binding inhibitor
Extent of inhibition (GAR TFase (HeLa O); 20 nM beta-TGDDF, 1 nM enzyme): inhibited by roughly the same magnitude
Mode of inhibition (GAR TFase (HeLa O)): inhibition of a slow, tight binding nature
Mode of inhibition (GAR TFase (HeLa O); listed as Beta-TGDDF): slow, tight-binding inhibitor
Kd (E. coli GAR TFase [1]): 0.25 nM
Mode of inhibition (E. coli GAR TFase [2]): slow, tight-binding inhibitor
